System: P. ehimensis NPUST-1
Assay: Inhibition effect of aquacultural antibiotics against NPUST-1 strain (inhibitory zone)
Format: cell-based, Paenibacillus ehimensis
Parameters: inhibitory zone size: unit not given here
Conditions: for inhibitory zone size: TSB agar plate containing P. ehimensis NPUST-1, each antibiotic at its maximum concentration for aquaculture (Table 4); for resistance of the strain NPUST-1 against the antibiotic / inhibition effect against P. ehimensis NPUST-1: in words; for inhibition effect against P. ehimensis NPUST-1: antibiotic at maximum concentration for aquaculture
Source text: To find out competent antibiotics for combination with NPUST-1 bacterial strain used as a probiotic, inhibition effect of varies aquacultural antibiotics against NPUST-1 bacterial strain are examined. Detailed testing steps are described as below.
Following antibiotics are examined: amoxicillin, ampicillin, doxycycline, erythromycin, furazolidone, flumequine, ormetoprim, oxytetracycline, sulfadimethoxine, chloramphenicol, gentamycin and kanamycin. The antibiotics concentration (shown in table 4) being tested are the available maximum concentration conformed to the drug regulation for aquaculture. After all the antibiotics are prepared, use TSB agar plate containing P. ehimensis NPUST-1 to determine the antibacterial activity and measure the inhibitory zone of antibiotics.

`CC1(C)S[C@@H]2[C@H](NC(=O)[C@H](N)c3ccc(O)cc3)C(=O)N2[C@H]1C(=O)O` [Amoxicillin, amoxicillin] was tested, and the inhibitory zone size was 2.30 ± 0.10.

For `CC1(C)S[C@@H]2[C@H](NC(=O)[C@H](N)c3ccccc3)C(=O)N2[C@H]1C(=O)O` [Ampiciliin, ampicillin], the “resistance of the strain NPUST-1 against the antibiotic” value was “resistance” and the “inhibition effect against P. ehimensis NPUST-1” value was “no inhibition effect”.

`O=C(N[C@H](CO)[C@H](O)c1ccc([N+](=O)[O-])cc1)C(Cl)Cl` [Chloramphenicol, chloramphenicol] gave an inhibitory zone size of 2.67 ± 0.06.

`C[C@H]1c2cccc(O)c2C(=O)C2=C(O)[C@]3(O)C(=O)C(C(N)=O)=C(O)[C@@H](N(C)C)[C@@H]3[C@@H](O)[C@@H]21` [Doxycycline, doxycycline] was tested, and the inhibitory zone size was 3.30 ± 0.00.

`CC[C@H]1OC(=O)[C@H](C)[C@@H](O[C@H]2C[C@@](C)(OC)[C@@H](O)[C@H](C)O2)[C@H](C)[C@@H](O[C@@H]2O[C@H](C)C[C@H](N(C)C)[C@H]2O)[C@](C)(O)C[C@@H](C)C(=O)[C@H](C)[C@@H](O)[C@]1(C)O` [Erythromycin, erythromycin] gave an inhibitory zone size of 1.73 ± 0.06.

Work on `CC1CCc2cc(F)cc3c(=O)c(C(=O)O)cn1c23` (centres unmarked) [Flumequine, flumequine] yielded an inhibitory zone size of 5.67 ± 0.06.

For `O=C1OCCN1/N=C/c1ccc([N+](=O)[O-])o1` [Furazolidone, furazolidone], the inhibitory zone size was 1.00 ± 0.00.

`NC[C@H]1O[C@H](O[C@H]2[C@H](O)[C@@H](O[C@H]3O[C@H](CO)[C@@H](O)[C@H](N)[C@H]3O)[C@H](N)C[C@@H]2N)[C@H](O)[C@@H](O)[C@@H]1O` [Kanamycin, kanamycin] gave an inhibitory zone size of 1.13 ± 0.03.

In the case of `COc1cc(C)c(Cc2cnc(N)nc2N)cc1OC` [Ormetoprim, ormetoprim], the inhibitory zone size is reported as 4.60 ± 0.00.

With `CN(C)[C@@H]1C(O)=C(C(N)=O)C(=O)[C@@]2(O)C(O)=C3C(=O)c4c(O)cccc4[C@@](C)(O)[C@H]3[C@H](O)[C@@H]12` [Oxytetracycline, oxytetracycline] the inhibitory zone size was 2.13 ± 0.06.

`COc1cc(NS(=O)(=O)c2ccc(N)cc2)nc(OC)n1` [Sulfadimethoxine, sulfadimethoxine] was tested, and the “inhibition effect against P. ehimensis NPUST-1” value was “no inhibition effect”.

`Cc1ccnc(NS(=O)(=O)c2ccc(N)cc2)n1` [sulfamerazine] was tested, and the “resistance of the strain NPUST-1 against the antibiotic” value was “resistance”.

In the case of gentamycin, the inhibitory zone size is reported as 2.03 ± 2.03.

Reference: US10689421B2, “Bacteriocin-producing Paenibacillus ehimensis and application thereof” (National Pingtung University of Science and Technology, priority 2018, dated 2020)
